Results from patent publication US10710978B2, “STK4 inhibitors for treatment of hematologic malignancies” (Dana-Farber Cancer Institute, Inc., priority 2015, dated 2020).
Like-named read-outs stand apart in the source and are kept apart here.

What was measured:
Assay in all cases: KiNativ assay
Type in all cases: binding
[1] = biological target: SLK (Homo sapiens (Human), UniProt Q9H2G2); settings: H929 live cell
Method: (§1) Biochemical IC50s of the compounds of the present disclosure against various kinases were measured in a KiNativ assay. Compounds were screened in duplicate at 10 μM in H929 live cell. IC50 was measured via Mass spectroscopy (MS).

[2] = biological target: LKB1 (Homo sapiens (Human), UniProt Q15831); settings: H929 live cell
Method: as §1

[3] = system: PI4KA, PI4KAP2; settings: H929 live cell; for % inhibition: 10 μM, range class
Method: as §1

[4] = system: MAP3K2, MAP3K3; settings: H929 live cell; for % inhibition: 10 μM, range class
Method: as §1

[5] = biological target: PKR (Homo sapiens (Human), UniProt P19525); settings: H929 live cell
Method: as §1

[6] = biological target: STLK3 (Homo sapiens (Human), UniProt Q9UEW8); settings: H929 live cell
Method: as §1

[7] = biological target: MAP2K5 (Homo sapiens (Human), UniProt Q13163); settings: H929 live cell
MAP2K5, sequence (Q13163 whole entry): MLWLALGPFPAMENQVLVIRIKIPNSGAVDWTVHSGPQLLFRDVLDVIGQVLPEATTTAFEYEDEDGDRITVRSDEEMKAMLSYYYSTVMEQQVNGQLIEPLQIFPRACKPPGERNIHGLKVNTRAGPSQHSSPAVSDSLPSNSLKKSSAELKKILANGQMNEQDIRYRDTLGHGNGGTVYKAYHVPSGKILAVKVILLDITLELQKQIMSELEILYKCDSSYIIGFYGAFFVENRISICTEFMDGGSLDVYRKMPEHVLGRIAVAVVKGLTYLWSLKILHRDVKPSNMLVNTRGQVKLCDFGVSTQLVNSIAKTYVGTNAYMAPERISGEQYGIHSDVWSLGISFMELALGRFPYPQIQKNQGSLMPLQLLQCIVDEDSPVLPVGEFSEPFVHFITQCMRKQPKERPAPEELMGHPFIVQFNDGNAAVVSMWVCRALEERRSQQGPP
Method: as §1

[8] = biological target: BRAF (Homo sapiens (Human), UniProt P15056); settings: H929 live cell
Method: as §1

[9] = biological target: ULK1 (Homo sapiens (Human), UniProt O75385); settings: H929 live cell
Method: as §1

[10] = biological target: CDC2 (Homo sapiens (Human), UniProt P06493); settings: H929 live cell
CDC2, sequence (P06493 whole entry): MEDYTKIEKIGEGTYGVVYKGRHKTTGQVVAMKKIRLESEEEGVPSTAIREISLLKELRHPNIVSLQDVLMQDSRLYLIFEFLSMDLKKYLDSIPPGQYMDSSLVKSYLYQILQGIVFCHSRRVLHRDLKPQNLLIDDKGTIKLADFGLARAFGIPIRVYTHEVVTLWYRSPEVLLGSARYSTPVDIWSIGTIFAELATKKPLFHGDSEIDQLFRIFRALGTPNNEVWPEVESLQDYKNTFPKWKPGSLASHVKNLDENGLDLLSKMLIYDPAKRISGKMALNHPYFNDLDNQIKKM
Method: as §1

[11] = biological target: MSK1 domain1 (Homo sapiens (Human), UniProt O75582); settings: H929 live cell
Method: as §1

[12] = biological target: JAK3 domain2 (Homo sapiens (Human), UniProt P52333); settings: H929 live cell
JAK3 domain2, sequence (P52333 whole entry, the tested form may be a part): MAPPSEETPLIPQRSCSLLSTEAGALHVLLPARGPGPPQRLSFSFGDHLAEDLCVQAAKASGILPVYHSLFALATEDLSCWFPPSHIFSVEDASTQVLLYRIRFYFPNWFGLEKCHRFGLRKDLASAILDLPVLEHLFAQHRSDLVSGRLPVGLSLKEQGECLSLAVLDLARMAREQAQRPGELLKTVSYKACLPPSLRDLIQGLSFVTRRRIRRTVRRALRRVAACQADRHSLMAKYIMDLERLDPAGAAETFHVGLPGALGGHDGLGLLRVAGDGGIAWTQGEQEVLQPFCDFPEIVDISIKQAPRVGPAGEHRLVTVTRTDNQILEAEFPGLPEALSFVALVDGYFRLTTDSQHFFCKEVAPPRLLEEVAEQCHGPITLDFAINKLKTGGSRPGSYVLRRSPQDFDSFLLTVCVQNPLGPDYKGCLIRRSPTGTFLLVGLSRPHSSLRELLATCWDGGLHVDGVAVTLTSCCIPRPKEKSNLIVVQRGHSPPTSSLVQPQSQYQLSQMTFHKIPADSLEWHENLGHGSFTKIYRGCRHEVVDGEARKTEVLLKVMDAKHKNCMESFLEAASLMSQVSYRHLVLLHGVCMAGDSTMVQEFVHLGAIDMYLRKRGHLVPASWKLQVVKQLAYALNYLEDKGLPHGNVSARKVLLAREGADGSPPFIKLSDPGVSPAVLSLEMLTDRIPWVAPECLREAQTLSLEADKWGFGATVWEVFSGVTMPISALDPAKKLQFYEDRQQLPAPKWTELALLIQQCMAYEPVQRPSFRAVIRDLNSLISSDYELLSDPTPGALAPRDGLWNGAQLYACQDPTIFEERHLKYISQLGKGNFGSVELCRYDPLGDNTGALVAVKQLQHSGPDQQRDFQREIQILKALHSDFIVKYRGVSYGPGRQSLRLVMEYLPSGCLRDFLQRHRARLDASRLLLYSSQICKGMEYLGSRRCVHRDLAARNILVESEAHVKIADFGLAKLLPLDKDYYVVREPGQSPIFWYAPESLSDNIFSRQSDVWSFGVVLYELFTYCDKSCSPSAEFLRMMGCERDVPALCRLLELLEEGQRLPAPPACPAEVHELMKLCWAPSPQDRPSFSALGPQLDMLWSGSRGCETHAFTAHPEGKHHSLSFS
Method: as §1

[13] = biological target: MAP2K4 (Homo sapiens (Human), UniProt P45985); settings: H929 live cell
Method: as §1

[14] = biological target: SRPK1 (Homo sapiens (Human), UniProt Q96SB4); settings: H929 live cell
Method: as §1

[15] = biological target: ZAK (Homo sapiens (Human), UniProt Q9NYL2); settings: H929 live cell
Method: as §1

[16] = biological target: CaMK2g (Homo sapiens (Human), UniProt Q13555); settings: H929 live cell
CaMK2g, sequence (Q13555 whole entry): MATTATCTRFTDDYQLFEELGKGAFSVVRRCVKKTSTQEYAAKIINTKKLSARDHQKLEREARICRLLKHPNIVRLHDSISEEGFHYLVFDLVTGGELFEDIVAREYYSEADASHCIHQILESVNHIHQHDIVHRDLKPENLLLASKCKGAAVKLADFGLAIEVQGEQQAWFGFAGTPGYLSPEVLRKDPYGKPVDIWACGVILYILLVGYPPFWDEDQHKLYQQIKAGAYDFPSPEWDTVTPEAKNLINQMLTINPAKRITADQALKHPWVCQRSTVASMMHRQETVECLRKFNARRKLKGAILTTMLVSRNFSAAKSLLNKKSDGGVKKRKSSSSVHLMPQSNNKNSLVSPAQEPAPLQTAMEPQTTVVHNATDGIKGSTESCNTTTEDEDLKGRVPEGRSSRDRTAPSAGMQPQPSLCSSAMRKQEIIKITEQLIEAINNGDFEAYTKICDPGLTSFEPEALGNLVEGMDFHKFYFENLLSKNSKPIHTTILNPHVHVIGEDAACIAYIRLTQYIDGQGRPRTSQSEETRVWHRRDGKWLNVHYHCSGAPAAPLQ
Method: as §1

[17] = biological target: MARK4 (Homo sapiens (Human), UniProt Q96L34); settings: H929 live cell
MARK4, sequence (Q96L34 whole entry): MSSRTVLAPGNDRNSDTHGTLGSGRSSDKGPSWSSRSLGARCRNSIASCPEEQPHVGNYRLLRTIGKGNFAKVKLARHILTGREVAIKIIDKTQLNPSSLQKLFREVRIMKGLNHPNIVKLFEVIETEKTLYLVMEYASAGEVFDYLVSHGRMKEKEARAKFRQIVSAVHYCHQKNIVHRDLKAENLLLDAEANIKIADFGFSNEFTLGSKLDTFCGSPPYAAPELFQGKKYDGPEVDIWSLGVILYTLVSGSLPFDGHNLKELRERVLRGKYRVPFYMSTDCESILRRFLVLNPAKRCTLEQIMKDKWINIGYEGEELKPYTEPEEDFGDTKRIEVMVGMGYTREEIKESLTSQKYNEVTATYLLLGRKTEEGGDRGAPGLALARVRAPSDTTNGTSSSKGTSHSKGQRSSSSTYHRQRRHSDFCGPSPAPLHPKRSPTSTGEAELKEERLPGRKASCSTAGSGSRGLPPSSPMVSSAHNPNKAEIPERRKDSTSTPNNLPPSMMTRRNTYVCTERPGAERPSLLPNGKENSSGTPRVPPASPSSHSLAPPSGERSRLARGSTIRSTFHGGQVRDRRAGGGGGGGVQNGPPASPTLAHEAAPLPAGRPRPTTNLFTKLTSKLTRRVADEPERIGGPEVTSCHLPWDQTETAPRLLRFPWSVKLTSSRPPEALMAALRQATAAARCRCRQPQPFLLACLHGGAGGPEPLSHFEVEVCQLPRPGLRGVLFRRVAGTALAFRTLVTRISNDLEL
Method: as §1

[18] = biological target: MAP3K5 (Homo sapiens (Human), UniProt Q99683); settings: H929 live cell
MAP3K5, sequence (Q99683 whole entry): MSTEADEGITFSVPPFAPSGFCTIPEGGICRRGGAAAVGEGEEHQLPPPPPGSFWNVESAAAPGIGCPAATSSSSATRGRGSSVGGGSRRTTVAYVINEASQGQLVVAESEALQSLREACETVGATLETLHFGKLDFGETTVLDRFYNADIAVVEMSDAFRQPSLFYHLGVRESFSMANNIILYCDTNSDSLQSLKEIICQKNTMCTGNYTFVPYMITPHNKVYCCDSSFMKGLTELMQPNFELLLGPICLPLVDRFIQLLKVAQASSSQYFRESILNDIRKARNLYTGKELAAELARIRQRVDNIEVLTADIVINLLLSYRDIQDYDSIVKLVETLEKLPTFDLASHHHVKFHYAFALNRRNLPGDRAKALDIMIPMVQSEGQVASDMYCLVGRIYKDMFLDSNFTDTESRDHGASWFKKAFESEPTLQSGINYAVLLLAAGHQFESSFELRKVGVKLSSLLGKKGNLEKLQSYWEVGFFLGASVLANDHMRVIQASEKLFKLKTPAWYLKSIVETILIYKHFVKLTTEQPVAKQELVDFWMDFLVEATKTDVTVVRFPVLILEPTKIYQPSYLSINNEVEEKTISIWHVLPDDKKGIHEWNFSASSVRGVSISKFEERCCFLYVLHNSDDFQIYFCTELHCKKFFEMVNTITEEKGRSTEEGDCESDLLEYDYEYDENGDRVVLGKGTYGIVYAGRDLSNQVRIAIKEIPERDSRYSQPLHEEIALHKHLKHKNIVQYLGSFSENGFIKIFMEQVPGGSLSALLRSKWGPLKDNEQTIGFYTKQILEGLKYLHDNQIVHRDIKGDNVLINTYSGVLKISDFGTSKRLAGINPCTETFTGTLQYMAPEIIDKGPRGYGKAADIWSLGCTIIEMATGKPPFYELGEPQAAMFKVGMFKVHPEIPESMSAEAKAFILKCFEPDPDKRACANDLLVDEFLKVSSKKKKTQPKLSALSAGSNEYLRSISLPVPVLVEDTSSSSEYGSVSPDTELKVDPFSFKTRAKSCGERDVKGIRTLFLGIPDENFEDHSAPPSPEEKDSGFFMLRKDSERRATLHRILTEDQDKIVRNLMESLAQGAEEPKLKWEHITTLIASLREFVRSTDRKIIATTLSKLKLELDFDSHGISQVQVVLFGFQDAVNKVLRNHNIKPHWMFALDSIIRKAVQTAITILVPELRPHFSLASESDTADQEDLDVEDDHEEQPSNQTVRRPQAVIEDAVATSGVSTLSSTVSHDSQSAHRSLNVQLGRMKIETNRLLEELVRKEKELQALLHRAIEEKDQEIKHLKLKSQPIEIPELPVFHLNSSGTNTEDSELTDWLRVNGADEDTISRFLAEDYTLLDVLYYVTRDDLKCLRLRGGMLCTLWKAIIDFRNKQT
Method: as §1

[19] = biological target: PKN1 (Homo sapiens (Human), UniProt Q16512); settings: H929 live cell
Method: as §1

[20] = biological target: FER (Homo sapiens (Human), UniProt P16591); settings: H929 live cell
Method: as §1

[21] = system: MST4, YSK1; settings: H929 live cell; for % inhibition: 10 μM, range class
Method: as §1

[22] = biological target: MLKL (Homo sapiens (Human), UniProt Q8NB16); settings: H929 live cell
MLKL, sequence (Q8NB16 whole entry): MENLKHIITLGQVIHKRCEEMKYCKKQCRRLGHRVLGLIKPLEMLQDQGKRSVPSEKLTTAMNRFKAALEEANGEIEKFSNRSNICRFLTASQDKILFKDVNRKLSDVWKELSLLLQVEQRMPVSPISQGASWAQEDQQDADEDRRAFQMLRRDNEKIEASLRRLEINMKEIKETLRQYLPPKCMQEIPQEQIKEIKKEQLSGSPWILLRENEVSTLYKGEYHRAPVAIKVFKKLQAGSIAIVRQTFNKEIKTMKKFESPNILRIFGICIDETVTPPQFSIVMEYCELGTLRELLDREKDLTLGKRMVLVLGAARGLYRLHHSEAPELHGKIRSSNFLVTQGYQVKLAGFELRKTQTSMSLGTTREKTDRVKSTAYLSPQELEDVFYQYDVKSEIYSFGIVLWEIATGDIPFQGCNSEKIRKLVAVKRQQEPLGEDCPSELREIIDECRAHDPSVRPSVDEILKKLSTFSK
Method: as §1

[23] = system: NEK6, NEK7; settings: H929 live cell; for % inhibition: 10 μM, range class
Method: as §1

[24] = range class, read-out: % inhibition

For COc1cc(NS(=O)(=O)C2CC2)ccc1-c1cnc(N)c(-c2ccc3c(c2)CCNC3=O)c1 [Compound I-50, N-(4-(6-amino-5-(1-oxo-1,2,3,4-tetrahydroisoquinolin-6-yl)pyridin-3-yl)-3-methoxyphenyl) cyclopropanesulfonamide], the inhibition at 10 µM [1, 24] was 50 to 75%, the inhibition at 10 µM ([1]; read-out: inhibition (10 μM)) was 70.6% and the inhibition at 10 µM [2, 24] was 0%. For the same compound, the inhibition at 10 µM ([2]; read-out: inhibition (10 μM)) was -1.1%, the “% inhibition” value [3] was 0.0% and the “inhibition (10 μM)” value [3] was 24.7%. For the same compound, the “% inhibition” value [4] was 0.0%, the “inhibition (10 μM)” value [4] was 12.0% and the inhibition at 10 µM [5, 24] was 0%. For the same compound, the inhibition at 10 µM ([5]; read-out: inhibition (10 μM)) was 1.8%, the inhibition at 10 µM [6, 24] was 0% and the inhibition at 10 µM ([6]; read-out: inhibition (10 μM)) was -12.3%. It also gave an inhibition at 10 µM [7, 24] of 0%, an inhibition at 10 µM ([7]; read-out: inhibition (10 μM)) of -12.1% and an inhibition at 10 µM [8, 24] of 0%. The inhibition at 10 µM ([8]; read-out: inhibition (10 μM)) was -35.8%, the inhibition at 10 µM [9, 24] was 0% and the inhibition at 10 µM ([9]; read-out: inhibition (10 μM)) was 28.8%. The inhibition at 10 µM [10, 24] was 0%, the inhibition at 10 µM ([10]; read-out: inhibition (10 μM)) was 13.7% and the inhibition at 10 µM [11, 24] was 0%. It also gave an inhibition at 10 µM ([11]; read-out: inhibition (10 μM)) of 0.1%, an inhibition at 10 µM [12, 24] of 0% and an inhibition at 10 µM ([12]; read-out: inhibition (10 μM)) of -20.2%. It also gave an inhibition at 10 µM [13, 24] of 35 to 40%, an inhibition at 10 µM ([13]; read-out: inhibition (10 μM)) of 37.5% and an inhibition at 10 µM [14, 24] of 0%. The inhibition at 10 µM ([14]; read-out: inhibition (10 μM)) was -9.2%, the inhibition at 10 µM [15, 24] was 0% and the inhibition at 10 µM ([15]; read-out: inhibition (10 μM)) was 6.6%. For the same compound, the inhibition at 10 µM [16, 24] was 0%, the inhibition at 10 µM ([16]; read-out: inhibition (10 μM)) was 15.6% and the inhibition at 10 µM [17, 24] was 0%. It also gave an inhibition at 10 µM ([17]; read-out: inhibition (10 μM)) of 6.8%, an inhibition at 10 µM [18, 24] of 0% and an inhibition at 10 µM ([18]; read-out: inhibition (10 μM)) of 27.5%. It also gave an inhibition at 10 µM [19, 24] of 0%, an inhibition at 10 µM ([19]; read-out: inhibition (10 μM)) of -39.9% and an inhibition at 10 µM [20, 24] of 0%. For the same compound, the inhibition at 10 µM ([20]; read-out: inhibition (10 μM)) was 16.3%, the “% inhibition” value [21] was 35-40% and the “inhibition (10 μM)” value [21] was 35.4%. For the same compound, the inhibition at 10 µM [22, 24] was 0%, the inhibition at 10 µM ([22]; read-out: inhibition (10 μM)) was 8.2% and the “% inhibition” value [23] was 0.0%. The “inhibition (10 μM)” value [23] was −54.5%.
Work on Nc1ncc(-c2ccc(NS(=O)(=O)C3CC3)cc2F)cc1-c1ccc2c(c1)CCNC2=O [Compound I-51, N-(4-(6-amino-5-(1-oxo-1,2,3,4-tetrahydroisoquinolin-6-yl)pyridin-3-yl)-3-fluorophenyl) cyclopropanesulfonamide] yielded an inhibition at 10 µM [1, 24] of 75 to 90%, an inhibition at 10 µM ([1]; read-out: inhibition (10 μM)) of 85.6% and an inhibition at 10 µM [2, 24] of 0%. The inhibition at 10 µM ([2]; read-out: inhibition (10 μM)) was 5.1%, the “% inhibition” value [3] was 0.0% and the “inhibition (10 μM)” value [3] was 0.1%. For the same compound, the “% inhibition” value [4] was 0.0%, the “inhibition (10 μM)” value [4] was 26.7% and the inhibition at 10 µM [5, 24] was 0%. For the same compound, the inhibition at 10 µM ([5]; read-out: inhibition (10 μM)) was 3.8%, the inhibition at 10 µM [6, 24] was 0% and the inhibition at 10 µM ([6]; read-out: inhibition (10 μM)) was -5%. For the same compound, the inhibition at 10 µM [7, 24] was 0%, the inhibition at 10 µM ([7]; read-out: inhibition (10 μM)) was -4% and the inhibition at 10 µM [8, 24] was 0%. It also gave an inhibition at 10 µM ([8]; read-out: inhibition (10 μM)) of -41.8%, an inhibition at 10 µM [9, 24] of 35 to 40% and an inhibition at 10 µM ([9]; read-out: inhibition (10 μM)) of 40%. The inhibition at 10 µM [10, 24] was 0%, the inhibition at 10 µM ([10]; read-out: inhibition (10 μM)) was 18.5% and the inhibition at 10 µM [11, 24] was 0%. It also gave an inhibition at 10 µM ([11]; read-out: inhibition (10 μM)) of 11.4%, an inhibition at 10 µM [12, 24] of 0% and an inhibition at 10 µM ([12]; read-out: inhibition (10 μM)) of 13.4%. It also gave an inhibition at 10 µM [13, 24] of 35 to 40%, an inhibition at 10 µM ([13]; read-out: inhibition (10 μM)) of 44.2% and an inhibition at 10 µM [14, 24] of 0%. For the same compound, the inhibition at 10 µM ([14]; read-out: inhibition (10 μM)) was -11.5%, the inhibition at 10 µM [15, 24] was 50 to 75% and the inhibition at 10 µM ([15]; read-out: inhibition (10 μM)) was 58.3%. The inhibition at 10 µM [16, 24] was 0%, the inhibition at 10 µM ([16]; read-out: inhibition (10 μM)) was -6.4% and the inhibition at 10 µM [17, 24] was 0%. For the same compound, the inhibition at 10 µM ([17]; read-out: inhibition (10 μM)) was 22.2%, the inhibition at 10 µM [18, 24] was 0% and the inhibition at 10 µM ([18]; read-out: inhibition (10 μM)) was 16.3%. For the same compound, the inhibition at 10 µM [19, 24] was 0%, the inhibition at 10 µM ([19]; read-out: inhibition (10 μM)) was -72.1% and the inhibition at 10 µM [20, 24] was 0%. The inhibition at 10 µM ([20]; read-out: inhibition (10 μM)) was 13.4%, the “% inhibition” value [21] was 50-75% and the “inhibition (10 μM)” value [21] was 68.1%. The inhibition at 10 µM [22, 24] was 50 to 75%, the inhibition at 10 µM ([22]; read-out: inhibition (10 μM)) was 51.4% and the “% inhibition” value [23] was 0.0%. For the same compound, the “inhibition (10 μM)” value [23] was −63.6%.
In the case of Nc1ncc(-c2ccc(NS(=O)(=O)C3CC3)cc2OC2CCCCC2)cc1-c1ccc2c(c1)CCNC2=O [Compound I-65, N-(4-(6-amino-5-(1-oxo-1,2,3,4-tetrahydroisoquinolin-6-yl)pyridin-3-yl)-3-(cyclohexyloxy)phenyl) cyclopropanesulfonamide], the inhibition at 10 µM [1, 24] is reported as > 90%, the inhibition at 10 µM ([1]; read-out: inhibition (10 μM)) is reported as 97.8% and the inhibition at 10 µM [2, 24] is reported as 0%. For the same compound, the inhibition at 10 µM ([2]; read-out: inhibition (10 μM)) was 27.4%, the “% inhibition” value [3] was 0.0% and the “inhibition (10 μM)” value [3] was −2.9%. For the same compound, the “% inhibition” value [4] was 0.0%, the “inhibition (10 μM)” value [4] was 23.3% and the inhibition at 10 µM [5, 24] was 0%. It also gave an inhibition at 10 µM ([5]; read-out: inhibition (10 μM)) of -7.6%, an inhibition at 10 µM [6, 24] of 0% and an inhibition at 10 µM ([6]; read-out: inhibition (10 μM)) of 31.4%. For the same compound, the inhibition at 10 µM [7, 24] was 0%, the inhibition at 10 µM ([7]; read-out: inhibition (10 μM)) was 15% and the inhibition at 10 µM [8, 24] was 0%. The inhibition at 10 µM ([8]; read-out: inhibition (10 μM)) was -41.5%, the inhibition at 10 µM [9, 24] was 0% and the inhibition at 10 µM ([9]; read-out: inhibition (10 μM)) was 22.2%. It also gave an inhibition at 10 µM [10, 24] of 0%, an inhibition at 10 µM ([10]; read-out: inhibition (10 μM)) of -0.5% and an inhibition at 10 µM [11, 24] of 0%. It also gave an inhibition at 10 µM ([11]; read-out: inhibition (10 μM)) of -52.5%, an inhibition at 10 µM [12, 24] of 50 to 75% and an inhibition at 10 µM ([12]; read-out: inhibition (10 μM)) of 52.1%. The inhibition at 10 µM [13, 24] was 0%, the inhibition at 10 µM ([13]; read-out: inhibition (10 μM)) was -15.3% and the inhibition at 10 µM [14, 24] was 0%. The inhibition at 10 µM ([14]; read-out: inhibition (10 μM)) was -25.4%, the inhibition at 10 µM [15, 24] was 35 to 40% and the inhibition at 10 µM ([15]; read-out: inhibition (10 μM)) was 36.2%. The inhibition at 10 µM [16, 24] was 0%, the inhibition at 10 µM ([16]; read-out: inhibition (10 μM)) was -12% and the inhibition at 10 µM [17, 24] was 0%. It also gave an inhibition at 10 µM ([17]; read-out: inhibition (10 μM)) of -1.1%, an inhibition at 10 µM [18, 24] of 0% and an inhibition at 10 µM ([18]; read-out: inhibition (10 μM)) of -12.4%. The inhibition at 10 µM ([19]; read-out: inhibition (10 μM)) was 35.9%, the inhibition at 10 µM [20, 24] was 50 to 75% and the inhibition at 10 µM ([20]; read-out: inhibition (10 μM)) was 63.6%. The “% inhibition” value [21] was 35-40%, the “inhibition (10 μM)” value [21] was 46.3% and the inhibition at 10 µM [22, 24] was 0%. The inhibition at 10 µM ([22]; read-out: inhibition (10 μM)) was 0.2%, the “% inhibition” value [23] was 0.0% and the “inhibition (10 μM)” value [23] was −78.6%.
